Measurements published in patent US8017791B2, “Tri-substituted 2-benzhydryl-5-benzylamino-tetrahydro-pyran-4-ol and 6-benzhydryl-4-benzylamino-tetrahydro-pyran-3-ol analogues, and novel, 3,6-disubstituted pyran derivatives” (Wayne State University, priority 2003, dated 2011).
Counter-ions that a name gives are not always drawn.

Experiments:
DAT [1] = target: T1, DAT (Rattus norvegicus, UniProt P23977); assay: Inhibition of [3H]WIN 35,428 binding to DAT
T1 construct: rat striatum was the source for DAT, and cerebral cortex for SERT and NET; from tissue; P2 synaptosomal fraction for uptake
Procedure: (§1) Biology. […] Briefly, rat striatum was the source for DAT, and cerebral cortex for SERT and NET. […] Test compounds were dissolved in dimethyl sulfoxide (DMSO) and diluted out in 10% (v/v) DMSO. […] At least five triplicate concentrations of each test compound were studied, spaced evenly around the IC50 value. For DAT uptake assays, uptake of 50 nM [^3H]DA into rat striatal synaptosomes was measured exactly as described by us previously. Briefly, rat striatal P2 membrane fractions were incubated with test compounds for 8 min followed by the additional presence of [^3H]DA for 4 min at 25?. […] Construction of inhibition curves and dissolvement of test compounds were as described above.

DAT [2] = target: T1, DAT; assay: Inhibition of [3H]DA uptake by DAT into rat striatal synaptosomes; type: biochemical; conditions: for IC50: read-out: DAT uptake, IC50 [3H]DA; for [3H]DA uptake/DAT binding: Table 3, ratio of IC50 values
Procedure: as §1

SERT = target: T2, SERT (Rattus norvegicus, UniProt P31652); assay: SERT uptake inhibition, [3H]5-HT; type: biochemical; conditions: in vitro data, Table 4, SERT and NET
T2 construct: rat striatum was the source for DAT, and cerebral cortex for SERT and NET; from tissue; host or cells: rat cerebral cortex
T2 sequence (P31652 whole entry): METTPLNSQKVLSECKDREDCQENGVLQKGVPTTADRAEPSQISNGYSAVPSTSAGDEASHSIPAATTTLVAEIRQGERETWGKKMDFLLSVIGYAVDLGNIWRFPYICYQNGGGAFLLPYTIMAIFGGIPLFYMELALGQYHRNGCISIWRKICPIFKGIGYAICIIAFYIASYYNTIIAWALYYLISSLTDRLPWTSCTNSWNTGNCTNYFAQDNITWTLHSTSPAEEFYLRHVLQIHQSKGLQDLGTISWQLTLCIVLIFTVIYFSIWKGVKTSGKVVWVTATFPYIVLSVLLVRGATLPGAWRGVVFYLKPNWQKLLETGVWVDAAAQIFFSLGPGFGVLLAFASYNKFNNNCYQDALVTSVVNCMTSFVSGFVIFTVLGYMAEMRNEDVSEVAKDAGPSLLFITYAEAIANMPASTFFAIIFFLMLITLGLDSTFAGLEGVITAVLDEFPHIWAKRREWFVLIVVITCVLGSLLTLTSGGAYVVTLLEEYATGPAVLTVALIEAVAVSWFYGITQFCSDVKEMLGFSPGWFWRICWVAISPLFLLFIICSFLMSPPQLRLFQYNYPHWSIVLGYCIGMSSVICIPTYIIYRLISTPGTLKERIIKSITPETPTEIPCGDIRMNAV

T1 sequence (P23977 whole entry): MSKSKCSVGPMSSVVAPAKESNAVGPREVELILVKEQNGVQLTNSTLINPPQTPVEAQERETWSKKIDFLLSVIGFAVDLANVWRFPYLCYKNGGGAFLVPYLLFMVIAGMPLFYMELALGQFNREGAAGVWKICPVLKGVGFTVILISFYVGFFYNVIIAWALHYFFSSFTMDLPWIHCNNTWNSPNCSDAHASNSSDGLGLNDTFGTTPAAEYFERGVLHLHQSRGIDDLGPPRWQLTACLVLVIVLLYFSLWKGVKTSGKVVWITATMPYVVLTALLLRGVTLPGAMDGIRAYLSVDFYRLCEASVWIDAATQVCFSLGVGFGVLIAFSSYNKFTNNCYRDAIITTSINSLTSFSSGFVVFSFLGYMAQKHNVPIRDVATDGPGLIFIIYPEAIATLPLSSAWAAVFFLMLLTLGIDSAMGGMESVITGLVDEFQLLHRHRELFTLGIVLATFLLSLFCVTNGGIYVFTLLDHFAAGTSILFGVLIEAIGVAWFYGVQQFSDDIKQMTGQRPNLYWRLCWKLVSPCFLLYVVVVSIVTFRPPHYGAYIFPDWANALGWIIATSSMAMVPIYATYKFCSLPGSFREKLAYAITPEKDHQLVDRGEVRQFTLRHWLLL

| Compound | melting point | further results |
| --- | --- | --- |
| COc1ccc(CN[C@H]2CO[C@@H](C(c3ccccc3)c3ccccc3)C[C@@H]2O)cc1 (as salt: oxalate) [(+)-29a, (2R,4S,5S)-2-benzhydryl-5-(4-methoxy-benzylamino)-tetrahydro-pyran-4-ol] | 230 to 232 °C | – |
| O[C@H]1C[C@H](C(c2ccccc2)c2ccccc2)OC[C@@H]1NCc1ccc(F)cc1 (as salt: oxalate) [(+)-29b, (2R,4S,5S)-2-benzhydryl-5-(4-fluoro-benzylamino)-tetrahydro-pyran-4-ol] | 223 to 225 °C | – |
| O[C@H]1C[C@H](C(c2ccccc2)c2ccccc2)OC[C@@H]1NCCc1ccc(F)cc1 (as salt: oxalate) [(+)-29c, (2R,4S,5S)-2-benzhydryl-5-[2-(4-fluoro-phenyl)-ethylamino]-tetrahydropyran-4-ol] | 203 to 205 °C | – |
| O[C@H]1C[C@H](C(c2ccccc2)c2ccccc2)OC[C@@H]1NCc1ccccc1 (as salt: oxalate) [(+)-29d, (2R,4S,5S)-2-benzhydryl-5-benzylamino-tetrahydro-pyran-4-ol] | 249 to 251 °C | – |
| Oc1ccc(CN[C@@H]2CC[C@H](C(c3ccccc3)c3ccccc3)OC2)cc1 (as salt: oxalate) [(+)-37a, cis-(3R,6R)-(6-benzhydryl-tetrahydropyran-3-yl)-(4-hydroxy-benzyl)-amine] | 136 to 138 °C | – |
| COc1ccc(CN[C@@H]2CO[C@H](C(c3ccccc3)c3ccccc3)C[C@H]2O)cc1 (as salt: oxalate) [(−)-29a, (2S,4R,5R)-2-benzhydryl-5-(4-methoxy-benzylamino)-tetrahydropyran-4-ol] | 230 to 232 °C | – |
| O[C@@H]1C[C@@H](C(c2ccccc2)c2ccccc2)OC[C@H]1NCc1ccc(F)cc1 (as salt: oxalate) [(−)-29b, (2S,4R,5R)-2-benzhydryl-5-(4-fluoro-benzylamino)-tetrahydro-pyran-4-ol] | 222 to 223 °C | – |
| O[C@@H]1C[C@@H](C(c2ccccc2)c2ccccc2)OC[C@H]1NCCc1ccc(F)cc1 (as salt: oxalate) [(−)-29c, (2S,4R,5R)-2-benzhydryl-5-[2-(4-fluoro-phenyl)-ethylamino]-tetrahydropyran-4-ol] | 205 to 207 °C | – |
| O[C@@H]1C[C@@H](C(c2ccccc2)c2ccccc2)OC[C@H]1NCc1ccccc1 (as salt: oxalate) [(−)-29d, (2S,4R,5R)-2-benzhydryl-5-benzylamino-tetrahydro-pyran 4-ol] | 250 to 252 °C | – |
| COc1ccc(CN[C@@H]2CO[C@H](C(c3ccccc3)c3ccccc3)C[C@H]2O)c(OC)c1 (as salt: oxalate) [(−)-29e, (2S,4R,5R)-2-benzhydryl-5-(2,4-dimethoxy-benzylamino)-tetrahydropyran-4-ol] | 208 to 210 °C | – |
| COc1cc(CN[C@@H]2CO[C@H](C(c3ccccc3)c3ccccc3)C[C@H]2O)cc(OC)c1 (as salt: oxalate) [(−)-29f, (2S,4R,5R)-2-benzhydryl-5-(3,5-dimethoxy-benzylamino)-tetrahydropyran-4-ol] | 245 to 247 °C | – |
| COc1ccc(CN[C@@H]2C[C@@H](C(c3ccccc3)c3ccccc3)OC[C@@H]2O)cc1 (as salt: oxalate) [(−)-29g, (3R,4R,6S)-6-benzhydryl-4-(4-methoxy-benzylamino)-tetrahydro-pyran-3-ol] | 234 to 235 °C | – |
| Oc1ccc(CN[C@H]2CC[C@@H](C(c3ccccc3)c3ccccc3)OC2)cc1 (as salt: oxalate) [(−)-37a, cis-(3S,6S)-(6-benzhydryl-tetrahydropyran-3-yl)-(4-hydroxy-benzyl)-amine] | 136 to 138 °C | – |
| c1ccc(C(c2ccccc2)C2CCC(NCc3c[nH]c4ccccc34)CO2)cc1 (stereo not drawn) (as salt: oxalate) [Compound 16f, Cis-(6-benzhydryl-tetrahydropyran-3-yl)-(3-indole-methyl)-amine] | 177 to 179 °C | – |
| c1ccc(C(c2ccccc2)C2CCC(NCc3cc4ccccc4[nH]3)CO2)cc1 (stereo not drawn) (as salt: oxalate) [Compound 16g, Cis-(6-benzhydryl-tetrahydropyran-3-yl)-(2-indole-methyl)-amine] | 215 to 216 °C | – |
| N[C@H]1CC[C@@H](C(c2ccccc2)c2ccccc2)OC1 (relative stereo) (as salt: HCl) [Compound 15, Cis-(6-benzhydryl-tetrahydropyran-3-yl)-amine] | 260 to 261 °C | – |

| Compound | melting point | further results |
| --- | --- | --- |
| Fc1ccc(CN[C@H]2CCO[C@@H](C(c3ccccc3)c3ccccc3)C2)cc1 (relative stereo) (as salt: oxalate) [Compound 7a, cis-(2-benzhydryl-tetrahydropyran 4-yl)-(4-fluorobenzyl)-amine] | 177 to 181 °C | – |
| Fc1ccc(CN[C@@H]2CCO[C@@H](C(c3ccccc3)c3ccccc3)C2)cc1 (relative stereo) (as salt: oxalate) [Compound 7b, trans-(2-benzhydryl-tetrahydropyran-4-yl)-(4-fluoro-benzyl)-amine] | 185 to 187 °C | – |
| Fc1ccc(CN[C@H]2CC[C@@H](C(c3ccccc3)c3ccccc3)OC2)cc1 (relative stereo) (as salt: oxalate) [Compound 16b, Cis-(6-benzhydryl-tetrahydropyran-3-yl)-(4-fluoro-benzyl)-amine] | 229 to 230 °C | – |
| N#Cc1ccc(CN[C@H]2CC[C@@H](C(c3ccccc3)c3ccccc3)OC2)cc1 (relative stereo) (as salt: oxalate) [Compound 16c, Cis-(6-benzhydryl-tetrahydropyran-3-yl)-(4-cyano-benzyl)-amine] | 241 to 242 °C | – |
| O=[N+]([O-])c1ccc(CN[C@H]2CC[C@@H](C(c3ccccc3)c3ccccc3)OC2)cc1 (relative stereo) (as salt: oxalate) [Compound 16d, Cis-(6-benzhydryl-tetrahydropyran-3-yl)-(4-nitro-benzyl)-amine] | 236 to 238 °C | – |
| COc1ccc(CN[C@H]2CC[C@@H](C(c3ccccc3)c3ccccc3)OC2)cc1 (relative stereo) (as salt: oxalate) [Compound 16e, Cis-(6-benzhydryl-tetrahydropyran-3-yl)-(4-methoxy-benzyl)-amine] | 215 to 217 °C | – |
| Clc1ccc(CN[C@H]2CC[C@@H](C(c3ccccc3)c3ccccc3)OC2)cc1Cl (relative stereo) (as salt: oxalate) [Compound 16i, Cis-(6-benzhydryl-tetrahydropyran-3-yl)-(3,4-dichloro-benzyl)-amine] | 251 to 252 °C | – |
| Fc1ccc(CN[C@H]2CC[C@@H](C(c3ccccc3)c3ccccc3)OC2)cc1F (relative stereo) (as salt: oxalate) [Compound 16j, Cis-(6-benzhydryl-tetrahydropyran-3-yl)-(3,4-difluoro-benzyl)-amine] | 234 to 235 °C | – |
| c1ccc(CN[C@H]2CC[C@@H](C(c3ccccc3)c3ccccc3)OC2)cc1 (relative stereo) (as salt: oxalate) [Compound 16k, Cis-(6-benzhydryl-tetrahydropyran-3-yl)-benzyl-amine] | 208 to 210 °C | – |
| Brc1ccc(CN[C@H]2CC[C@@H](C(c3ccccc3)c3ccccc3)OC2)cc1 (relative stereo) (as salt: oxalate) [Compound 16l, Cis-(6-benzhydryl-tetrahydropyran-3-yl)-(4-bromo-benzyl)-amine] | 250 to 252 °C | – |
| Ic1ccc(CN[C@H]2CC[C@@H](C(c3ccccc3)c3ccccc3)OC2)cc1 (relative stereo) (as salt: oxalate) [Compound 16m, Cis-(6-benzhydryl-tetrahydropyran-3-yl)-(4-iodo-benzyl)-amine] | 243 to 244 °C | – |
| Fc1ccc(CCN[C@H]2CC[C@@H](C(c3ccccc3)c3ccccc3)OC2)cc1 (relative stereo) (as salt: oxalate) [Compound 16p, Cis-(6-benzhydryl-tetrahydropyran-3-yl)-[2-(4-fluoro-phenyl)-ethyl]-amine] | 240 to 242 °C | – |
| N[C@H]1CC[C@@H](C(c2ccccc2)c2ccccc2)OC1 (relative stereo) [Compound 15, Cis-(6-benzhydryl-tetrahydropyran-3-yl)-amine] | – | activity at DAT, in words (DAT [1]): little or no activity at the DAT; IC50 (DAT [1]; Table 2, average ± SEM of three to eight experiments, read-out: DAT binding, IC50, [3H]Win 35,428): 777 ± 41 nM; IC50 (DAT [2]; Table 2, average ± SEM): 251 ± 31 nM; [3H]DA uptake/DAT binding (DAT [2]): 0.32 |
| COc1ccc(CN[C@H]2CC[C@@H](C(c3ccccc3)c3ccccc3)OC2)cc1 (relative stereo) [Compound 16e, Cis-(6-benzhydryl-tetrahydropyran-3-yl)-(4-methoxy-benzyl)-amine] | – | IC50 (DAT [1]; read-out: IC50 at the DAT): 84 nM; IC50 (DAT [2]; Table 2, average ± SEM): 59.5 ± 11.6 nM; [3H]DA uptake/DAT binding (DAT [2]): 0.71 |
| O[C@H]1C[C@H](C(c2ccccc2)c2ccccc2)OC[C@@H]1NCc1ccc2[nH]ccc2c1 [(+)-32b, (2R,4S,5S)-2-benzhydryl-5-[(1H-indol-5-ylmethyl)-amino]-tetrahydropyran-4-ol] | – | IC50 (DAT [1]; Table 4, rat brain, read-out: DAT binding, IC50, [3H]Win 35,428): 494 ± 96 nM; IC50 (DAT [2]; Table 4, rat brain): 247 ± 21 nM |
| COc1ccc(CN[C@@H]2CO[C@H](C(c3ccccc3)c3ccccc3)C[C@H]2O)cc1 [(−)-29a, (2S,4R,5R)-2-benzhydryl-5-(4-methoxy-benzylamino)-tetrahydropyran-4-ol] | – | blockade of both SERT and NET (SNRI profile), in words (SERT): potent blockers for both SERT and NET; blockade of both SERT and NET (SNRI profile), in words (SERT; listed as (−)29a): dual transport blockers |
